The values below come from PMC5805504 (Oncotarget, 2017).

Details of data set [1]: method as in PMID 21859884. Conditions: rats; cited from earlier work.
The next data set relates to U87MG xenograft tumors. The data set is described as follows: U87MG glioblastoma xenograft tumor model. Conditions: galunisertib 25 mg/kg BID oral; lomustine (CCNU) 30 mg/kg single intraperitoneal dose; alone or combined.

Each structure is given as a SMILES string.

Experimental for U87MG xenograft tumors: Five million U87MG glioblastoma cells, obtained from ATCC (Manassas, VA), were injected subcutaneously in the flank of 8- to 9-week old, female, athymic nude mice (Harlan, Indianapolis, IN) in a 1:1 mixture of 1x PBS and matrigel (Becton Dickinson, Bedford, MA). Mice were monitored daily for palpable tumors. […] The tumor volumes were recorded at regular intervals following treatment.

`c1ccc(-c2nc3c(c(-n4ccc5cnccc54)n2)CCC3)nc1` [AZ12601011]: in data set [1], the cardiac valve lesions entry was “induced cardiac valve lesions”. With `O=NN(CCCl)C(=O)NC1CCCCC1` [lomustine, reference compound], the “anti-tumor effect (tumor volume)” value in the data set on U87MG xenograft tumors is on record as “antitumor activity”.
